Non-standard residues stand in square brackets, D forms with d. Residues, ends and D or L forms follow the SMILES beside them. Nle = CCCC[C@H](N)C(=O)O
Test system: INS1 cells
Test: Mitochondrial content / cellular mitochondrial mass by imaging
Type: cell-based
Conditions: INS1 cell line; 8 hours, 24 hours, and 72 hours; three concentrations; FIG. 9; normalized to DMSO
Description: Cells were cultured on coverslips inside a Petri dish filled with the appropriate culture medium or grown directly into a four-chamber glass bottom dish and cells were subsequently imaged on the LSM880. At least 30 cells per condition per experiment were collected, at least three separate experiments were performed for imaging clonal cells. Image analysis was performed in the CellProfiler™ software (cellprofiler.org) to measure mitophagic events. Individual mitochondrial fluorescence intensity and area were measured in CellProfiler™ and imported into Microsoft Excel®. Mitochondria smaller than 2 pixels in area were not included in final analyses. Images were subjected to top hat filtering followed by global threshold Otsu method to segment mitochondria. To assess amount of mitochondrial content, green fluorescence intensity of objects identified as mitochondrial structures were quantitated. Data has been normalized to the control treatment, dimethyl sulfoxide (DMSO).

Structure (SMILES)	cellular mitochondrial mass (mitochondrial content)
CCCCOC(=O)NS(=O)(=O)c1ccc(OC(F)(F)F)cc1-c1ccc(Cn2ccnc2)cn1 [Compound 7]	stable
CCCC[C@H](NC(=O)[C@H](CCCNC(=N)N)NC(=O)[C@@H](N)CC(=O)O)C(=O)N[C@@H](Cc1ccc(O)cc1)C(=O)N[C@H](C(=O)N[C@@H](Cc1c[nH]cn1)C(=O)N1CCC[C@H]1C(=O)O)[C@@H](C)CC [Nle^3-A(1-7), Asp-Arg-Nle-Tyr-Ile-His-Pro] (H-DR[Nle]YIHP-OH)	stable
CC[C@H](C)[C@H](NC(=O)[C@H](Cc1ccc(O)cc1)NC(=O)[C@@H](NC(=O)[C@H](CCCNC(=N)N)NC(=O)[C@@H](N)CC(=O)O)C(C)C)C(=O)N[C@@H](Cc1c[nH]cn1)C(=O)N1CCC[C@H]1C(=O)O [angiotensin(1-7), H-Asp-Arg-Val-Tyr-Ile-His-Pro-OH]	stable

From patent US12343331B2, “Methods and agents that stimulate mitochondrial turnover for treating disease” (Capacity Bio, Inc., priority 2021, dated 2025)
